Laboratory results: patent US20170360791A1, “PHARMACEUTICAL COMPOSITIONS FOR INCREASING THE BIOAVAILABILITY OF POORLY SOLUBLE DRUGS” (ASTEX PHARMACEUTICALS, INC., priority 2014, published 2017)
Structures can show the parent of a compound that is named as a salt. Where two headings read alike, the source gives them in different places.

Columns and labels:
[1] = format: physicochemical
Protocol: The suspensions were filtered through 0.2 or 0.45 microm filters prior to HPLC analysis. Some filtrates were diluted with MeOH prior to the HPLC analysis.

[2] = MP470.HCl in T/C with or without Soluplus in SIF; format: physicochemical; conditions: Soluplus (12.3%) added to MP470.HCl in T/C, versus control without Soluplus; SIF 37° C., 1 mg/mL MP470 (total); FIG. 4
Protocol: A sample of the formulation was mixed with SIF solution pre-warmed at 37° C. to make a 1 mg/mL MP470 (total) mix.

A solubility ([1]; Capryol 90, oil or lipid, thermodynamic from solid, solvent Capryol 90, room temperature, >24 hours, read-out: Solubility) of 0.1 mg/mL, a solubility ([1]; Cremophor EL, organic solvent or mixture, thermodynamic from solid, solvent Cremophor EL, room temperature, >24 hours, read-out: Solubility) of 7 mg/mL and a solubility ([1]; DMF, organic solvent or mixture, thermodynamic from solid, solvent DMF, room temperature, >24 hours, read-out: Solubility) of 10 mg/mL were found for `S=C(NCc1ccc2c(c1)OCO2)N1CCN(c2ncnc3c2oc2ccccc23)CC1` [MP470.HCl, amuvatinib HCl] in this work. For the same compound, the solubility ([1]; Labrafac CC, oil or lipid, thermodynamic from solid, solvent Labrafac CC, room temperature, >24 hours, read-out: Solubility) was 0.05 mg/mL, the solubility ([1]; Labrafil M1944CS, oil or lipid, thermodynamic from solid, solvent Labrafil M1944CS, room temperature, >24 hours, read-out: Solubility) was 0.3 mg/mL and the solubility ([1]; Lauroglycol 90, oil or lipid, thermodynamic from solid, solvent Lauroglycol 90, room temperature, >24 hours, read-out: Solubility) was 0.06 mg/mL. The solubility ([1]; Maisine 35-1, oil or lipid, thermodynamic from solid, solvent Maisine 35-1, room temperature, >24 hours, read-out: Solubility) was 1.4 mg/mL, the solubility ([1]; Miglyol 812N, oil or lipid, thermodynamic from solid, solvent Miglyol 812N, room temperature, >24 hours, read-out: Solubility) was 0.03 mg/mL and the solubility ([1]; Miglyol 829, oil or lipid, thermodynamic from solid, solvent Miglyol 829, room temperature, >24 hours, read-out: Solubility) was 0.1 mg/mL. The solubility ([1]; Miglyol 840, oil or lipid, thermodynamic from solid, solvent Miglyol 840, room temperature, >24 hours, read-out: Solubility) was 0.04 mg/mL, the solubility ([1]; Peceol, oil or lipid, thermodynamic from solid, solvent Peceol, room temperature, >24 hours, read-out: Solubility) was 0.2 mg/mL and the solubility ([1]; Solutol HS 15, aqueous with cosolvent or surfactant or cyclodextrin, thermodynamic from solid, solvent Solutol HS 15, estimated by diluting the mixture in water 1/100 and then assaying the dilution, read-out: Solubility) was 6 mg/mL. The solubility ([1]; TPGS, aqueous with cosolvent or surfactant or cyclodextrin, thermodynamic from solid, solvent TPGS, estimated by diluting the mixture in water 1/100 and then assaying the dilution, read-out: Solubility) was 7 mg/mL, the solubility ([1]; benzyl acetate, organic solvent or mixture, thermodynamic from solid, solvent Benzyl acetate, room temperature, >24 hours, read-out: Solubility) was 0.4 mg/mL and the solubility ([1]; benzyl alcohol, organic solvent or mixture, thermodynamic from solid, solvent Benzyl alcohol, room temperature, >24 hours, read-out: Solubility) was 48 mg/mL. The solubility ([1]; canola oil, oil or lipid, thermodynamic from solid, solvent Canola oil, room temperature, >24 hours, read-out: Solubility) was 0.01 mg/mL, the solubility ([1]; castor oil, oil or lipid, thermodynamic from solid, solvent Castor oil, room temperature, >24 hours, read-out: Solubility) was 0.2 mg/mL and the solubility ([1]; clove oil, oil or lipid, thermodynamic from solid, solvent Clove oil, room temperature, >24 hours, read-out: Solubility) was 6.7 mg/mL. For the same compound, the solubility ([1]; corn oil, oil or lipid, thermodynamic from solid, solvent Corn oil, room temperature, >24 hours, read-out: Solubility) was 0.01 mg/mL, the solubility ([1]; dichloromethane, organic solvent or mixture, thermodynamic from solid, solvent Dichloromethane, room temperature, >24 hours, read-out: Solubility) was 0.4 mg/mL and the solubility ([1]; ethyl acetate, organic solvent or mixture, thermodynamic from solid, solvent Ethyl acetate, room temperature, >24 hours, read-out: Solubility) was 0.05 mg/mL. For the same compound, the solubility ([1]; peanut oil, oil or lipid, thermodynamic from solid, solvent Peanut oil, room temperature, >24 hours, read-out: Solubility) was 0.01 mg/mL, the solubility ([1]; sesame oil, oil or lipid, thermodynamic from solid, solvent Sesame oil, room temperature, >24 hours, read-out: Solubility) was 0.03 mg/mL and the solubility ([1]; solvent Acetic acid, room temperature, >24 hours, HCl) was 3.0 mg/mL. It also gave a solubility ([1]; solvent Acetone, room temperature, >24 hours, HCl) of 0.2 mg/mL, a solubility ([1]; solvent DMA, room temperature, >24 hours, HCl) of 13 mg/mL and a solubility ([1]; solvent DMSO, room temperature, >24 hours, HCl) of 18 mg/mL. The solubility ([1]; solvent Glycerin, room temperature, >24 hours, HCl) was 4 mg/mL, the solubility ([1]; solvent Labrasol, room temperature, >24 hours, HCl) was 3 mg/mL and the solubility ([1]; solvent Methanol, room temperature, >24 hours, HCl) was 3 mg/mL. The solubility ([1]; solvent NMP, room temperature, >24 hours, HCl) was 40 to 80 mg/mL, the solubility ([1]; solvent PEG400, room temperature, >24 hours, HCl) was 2 mg/mL and the solubility ([1]; solvent Phosal 50 PG, room temperature, >24 hours, HCl) was 15 mg/mL. The solubility ([1]; solvent Propylene glycol, room temperature, >24 hours, HCl) was 4 mg/mL, the solubility ([1]; solvent Triacetin, room temperature, >24 hours, HCl) was 0.8 mg/mL and the solubility ([1]; solvent Tween 20, room temperature, >24 hours, HCl) was 17 mg/mL. The solubility ([1]; solvent Tween 80, room temperature, >24 hours, HCl) was 4.5 mg/mL, the solubility ([1]; tocopherol, oil or lipid, thermodynamic from solid, solvent Tocopherol, room temperature, >24 hours, read-out: Solubility) was 0.8 mg/mL and the MP470 solubility enhancement [2] was about 10 fold.
